Where two headings read alike, the source gives them in different places. One block for each molecule: values may come before it.
Key:
MDS patients [1] = assay: Clinical study in MDS patients with RBC transfusion-dependence or symptomatic anemia
TNF-α production [2] = conditions: LPS-stimulated PBMC, cited from earlier work; for IC50: read-out: IC50 for inhibiting production of TNF-α
AML cells = assay: Mitogenic response to VEGF in AML cells; assay type: cell-based; conditions: by extinguishing ligand-induced Akt-phosphorylation
TNF-α production [3] = conditions: LPS-stimulated human whole blood, cited from earlier work
[4] = tested on: production of various cytokines; assay: In vitro studies of effects on production of various cytokines, potency compared with thalidomide; assay type: cell-based; conditions: in vitro cytokine production studies
Text: The results of these studies are described below.

MDS patients [5] = assay: Expanded clinical study with additional 16 MDS patients; assay type: in vivo, human
Text: The clinical study was expanded with additional 16 MDS patients for at least eight weeks. According to the IPSS, 13 of these patients were categorized as low- or intermediate-1-risk patients and three patients were grouped as intermediate-2- or high-risk patients. According to the FAB classification, there were 11 patients with refractory anemia (RA) or RA with ringed sideroblasts (RARS), and five patients with RA with excess blasts (RAEB), RAEB in transformation (RAEB-T). […] Among these 16 patients who completed at least 8 weeks of monitoring, nine patients achieved an erythroid response as assessed by the International MDS Working Group Criteria. The erythroid responses consisted of transfusion independence in seven previously transfusion-dependent patients, a >2 g/dL rise in blood hemoglobin concentration in one patient in with transfusion-independent anemia, and a >50% decrease in RBC transfusion requirement in one transfusion-dependent patient. […] In addition, complete cytogenetic responses developed in five in eight patients with abnormal karyotypes at baseline. These five patients with complete cytogenetic responses all had the Del5q31-33 abnormality, which has been discovered to be a good prognostic factor for MDS. Indeed, all five patients who enrolled in this study with 5q-syndrome achieved a complete cytogenetic response and a major erythroid response.

[6] = tested on: bone marrow progenitor formation; assay: MDS vs normal bone marrow progenitor formation in pre-clinical models; assay type: cell-based
MDS patients [7] = conditions: MDS patients treated with recombinant human EPO; cited from earlier work
[8] = 25 mg daily, initial ten patients
[9] = hematologic responses, nine evaluable

grade 3 fatigue necessitating dose reduction (MDS patients [1]; [8]): 1 patient
Grade 1,2 drug-related myalgia (MDS patients [1]; limited to the 25 mg dose): 1 patient
Grade 1,2 drug-related pruritus or itchy scalp (MDS patients [1]; limited to the 25 mg dose): 6 patients
need for dose reduction by completion of eight weeks therapy (MDS patients [5]; all patients with starting dose of 25 mg): required dose reduction
Molecule: Nc1cccc2c1CN(C1CCC(=O)NC1=O)C2=O (stereo not shown)
tolerability (MDS patients [1]; 10 mg continuous oral daily dose): well-tolerated with minimal myelosuppression
myelosuppression (higher than grade 3 common toxicity criteria or 50% decrease in leukocyte and platelet counts) necessitating dose reduction (MDS patients [1]; [8]): 9 patients
patients with IPSS Low/Int-1 who experienced hematologic benefit (MDS patients [1]; 6/7 patients with IPSS Low/Int-1): 86%
complete or partial cytogenetic remission (decrease in abnormal metaphases of more than 50%) (MDS patients [1]; among five patients evaluable for cytogenetic response): three
normalization of blast percentage (MDS patients [1]; among responders): 1 patient
patients who discontinued therapy prematurely (<2 weeks) (MDS patients [1]; due to cholecystitis, autoimmune hemolytic anemia, or patient refusal, of 15 patients): three
RBC transfusion-independence (MDS patients [1]; [9]): 4 patients
decrease in RBC transfusions of more than 50% (MDS patients [1]; [9]): 1 patient
increase in Hgb of more than 1.5 g (MDS patients [1]; [9]): 1 patient
minor platelet response (increase of more than 30,000/μL) (MDS patients [1]; number of responses): one
evaluable patients who experienced hematologic benefit (MDS patients [1]; of nine evaluable patients, oral 25 mg daily reduced to 10 mg, IWG criteria): 66%
overall clinical activity (MDS patients [1]; patients with low/intermediate-1 risk MDS): remarkable erythropoietic and cytogenetic remitting activity
IC50 for inhibiting production of TNF-α (TNF-α production [2]): ~25.9 ng/mL
IC50 (TNF-α production [2]): ~0.1 µM
mitogenic response to VEGF (AML cells): abrogates mitogenic response to VEGF in AML cells
IC50 for inhibiting production of TNF-α (TNF-α production [3]): ~103.6 ng/mL
IC50 (TNF-α production [3]; read-out: IC50 for inhibiting production of TNF-α): ~480 nM
potency relative to thalidomide, in all studies [4]: at least 50 times
patients with 5q-syndrome who achieved a complete cytogenetic response and a major erythroid response (MDS patients [5]; all enrolled patients with 5q-syndrome): five
patients who achieved an erythroid response (International MDS Working Group Criteria) (MDS patients [5]; among 16 patients with at least 8 weeks of monitoring, start 25 mg or 10 mg daily): nine
apoptotic index for myelodysplastic progenitors (MDS patients [5]; association with therapy): increased apoptotic index
normal hematopoietic progenitor cells (MDS patients [5]; association with therapy): recovery of normal hematopoietic progenitor cells
transfusion independence in previously transfusion-dependent patients (MDS patients [5]; erythroid responses): seven
minor platelet response (MDS patients [5]; human, in vivo): One
complete cytogenetic responses (MDS patients [5]; in eight patients with abnormal karyotypes at baseline): five
major erythroid response (MDS patients [5]; of 16 patients): eight
minor erythroid response (MDS patients [5]; of 16 patients): one
>50% decrease in RBC transfusion requirement (MDS patients [5]; transfusion-dependent patient): one
>2 g/dL rise in blood hemoglobin concentration (MDS patients [5]; transfusion-independent anemia): one
MDS vs normal bone marrow progenitor formation [6]: selectively suppresses MDS vs normal bone marrow progenitor formation

Molecule: O=C1CCC(N2C(=O)c3ccccc3C2=O)C(=O)N1 (racemic) [Thalidomide, 2-(2,6-dioxo-3-piperidinyl)-1H-isoindole-1,3(2H)-dione, reference compound]
IC50 for inhibiting production of TNF-α (TNF-α production [2]): ~50200 ng/mL
IC50 (TNF-α production [2]): ~194 µM

Molecule: recombinant human EPO: recombinant human erythropoietin (EPO), a hematopoietic growth factor
patients with sustained improvement in hemoglobin or decrease in transfusion requirement (MDS patients [7]): less than 25%

Reference: patent US7863297B2, “Methods of using 4-(amino)-2-(2,6-dioxo(3-piperidly))-isoindoline-3-dione for the treatment of myelodysplastic syndromes” (Celgene Corporation, priority 2002, dated 2011)
